Data reported in PubChem BioAssay AID2060617 (Molecular Pharmacology Branch, DTP, NCI, 2025).

Tested on: 485368-065-R4-J2-PDC spheroids with HUVEC/MSC, viability
Experiment: Anticancer human tumor 485368-065-R4-J2-PDC patient-derived pancreatic carcinoma cell line growth inhibition [CLK]
Settings: for IC50: curve of first compound; for viability, T/C: stronger effect = lower value; active means viability on the fitted dose curve at most 10% of control; inactive means the rest
How it was run: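 Patient-derived tumor cells grown as complex spheroids with HUVEC endothelial cells and mesenchymal stem cells, treated with drug combinations. Concentrations descend in half-log steps from near clinical Cmax, or from 10 microM if Cmax unknown.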

[1] = second compound 0.0316 µM, first compound 0.0316 µM
[2] = second compound 0.0316 µM, first compound 0.1 µM
[3] = second compound 0.0316 µM, first compound 0.316 µM
[4] = second compound 0.0316 µM, first compound 1 µM
[5] = second compound 0.0316 µM, first compound 3.16 µM
[6] = second compound 0.0316 µM, first compound 10 µM
[7] = second compound 0.1 µM, first compound 0.0316 µM
[8] = second compound 0.1 µM, first compound 0.1 µM
[9] = second compound 0.1 µM, first compound 0.316 µM
[10] = second compound 0.1 µM, first compound 1 µM
[11] = second compound 0.1 µM, first compound 3.16 µM
[12] = second compound 0.1 µM, first compound 10 µM
[13] = second compound 0.316 µM, first compound 0.0316 µM
[14] = second compound 0.316 µM, first compound 0.1 µM
[15] = second compound 0.316 µM, first compound 0.316 µM
[16] = second compound 0.316 µM, first compound 1 µM
[17] = second compound 0.316 µM, first compound 3.16 µM
[18] = second compound 0.316 µM, first compound 10 µM
[19] = second compound 1 µM, first compound 0.0316 µM
[20] = second compound 1 µM, first compound 0.1 µM
[21] = second compound 1 µM, first compound 0.316 µM
[22] = second compound 1 µM, first compound 1 µM
[23] = second compound 1 µM, first compound 3.16 µM
[24] = second compound 1 µM, first compound 10 µM
[25] = second compound 3.16 µM, first compound 0.0316 µM
[26] = second compound 3.16 µM, first compound 0.1 µM
[27] = second compound 3.16 µM, first compound 0.316 µM
[28] = second compound 3.16 µM, first compound 1 µM
[29] = second compound 3.16 µM, first compound 3.16 µM
[30] = second compound 3.16 µM, first compound 10 µM
[31] = second compound 10 µM, first compound 0.0316 µM
[32] = second compound 10 µM, first compound 0.1 µM
[33] = second compound 10 µM, first compound 0.316 µM
[34] = second compound 10 µM, first compound 1 µM
[35] = second compound 10 µM, first compound 3.16 µM
[36] = second compound 10 µM, first compound 10 µM
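Further: spheroids exposed to compounds for seven days.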
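Wherever viability, T/C is given: 100% = DMSO vehicle control wells.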

CC1(C)CCC(CN2CCN(c3ccc(C(=O)NS(=O)(=O)c4ccc(NCC5CCOCC5)c([N+](=O)[O-])c4)c(Oc4cnc5[nH]ccc5c4)c3)CC2)=C(c2ccc(Cl)cc2)C1 + CN1CCN(c2cc(C(=O)Nc3cc4cc(-c5cnn(C)c5)ccc4cn3)ccn2)CC1
< 0.0316 µM: IC50 (second compound 1 µM) | IC50 (second compound 3.16 µM) | IC50 (second compound 10 µM)
active: viability, T/C [19] 2.85% | viability, T/C [20] 0.83% | viability, T/C [21] 2.34% | viability, T/C [22] 1.27% | viability, T/C [23] 1.79% | viability, T/C [24] 3.68% | viability, T/C [25] 2.29% | viability, T/C [26] 1.33% | viability, T/C [27] 2.68% | viability, T/C [28] 2.94% | viability, T/C [29] 3.79% | viability, T/C [30] 3.42% | viability, T/C [31] 1.77% | viability, T/C [32] 2.36% | viability, T/C [33] 4.56% | viability, T/C [34] 5.88% | viability, T/C [35] 3.51% | viability, T/C [36] 1.68%
7.82 µM: IC50 (second compound 0.1 µM)
6.55 µM: IC50 (second compound 0.316 µM)
8.03 µM: IC50 (second compound 0.0316 µM)
inactive: viability, T/C [1] 102% | viability, T/C [2] 112% | viability, T/C [3] 114% | viability, T/C [4] 111% | viability, T/C [5] 122% | viability, T/C [6] 35.4% | viability, T/C [7] 113% | viability, T/C [8] 112% | viability, T/C [9] 112% | viability, T/C [10] 113% | viability, T/C [11] 121% | viability, T/C [12] 32.4% | viability, T/C [13] 86.8% | viability, T/C [14] 97.2% | viability, T/C [15] 94.6% | viability, T/C [16] 95.3% | viability, T/C [17] 104% | viability, T/C [18] 23.5%

CC1COCCN1c1cc(C2(S(C)(=N)=O)CC2)nc(-c2ccnc3[nH]ccc23)n1 (stereo unspecified) + CN1CCN(c2cc(C(=O)Nc3cc4cc(-c5cnn(C)c5)ccc4cn3)ccn2)CC1
active: viability, T/C [19] 1% | viability, T/C [20] 1.87% | viability, T/C [21] 1.95% | viability, T/C [22] 1.83% | viability, T/C [23] 1.71% | viability, T/C [24] 2.07% | viability, T/C [25] 1.39% | viability, T/C [26] 2.33% | viability, T/C [27] 2.68% | viability, T/C [28] 2.72% | viability, T/C [29] 3.59% | viability, T/C [30] 1.89% | viability, T/C [31] 1.49% | viability, T/C [32] 2.62% | viability, T/C [33] 2.44% | viability, T/C [34] 1.98% | viability, T/C [35] 1.76% | viability, T/C [36] 3.15%
6.83 µM: IC50 (second compound 0.316 µM)
> 10 µM: IC50 (second compound 0.0316 µM) | IC50 (second compound 0.1 µM)
inactive: viability, T/C [1] 102% | viability, T/C [2] 111% | viability, T/C [3] 102% | viability, T/C [4] 119% | viability, T/C [5] 118% | viability, T/C [6] 107% | viability, T/C [7] 107% | viability, T/C [8] 119% | viability, T/C [9] 113% | viability, T/C [10] 120% | viability, T/C [11] 103% | viability, T/C [12] 90.9% | viability, T/C [13] 88.5% | viability, T/C [14] 88.3% | viability, T/C [15] 74.8% | viability, T/C [16] 75.2% | viability, T/C [17] 60.3% | viability, T/C [18] 44.4%
< 0.0316 µM: IC50 (second compound 1 µM) | IC50 (second compound 3.16 µM) | IC50 (second compound 10 µM)

NC(=O)C(=Cn1cnc(-c2cc(C(F)(F)F)cc(C(F)(F)F)c2)n1)c1cncnc1 + CN1CCN(c2cc(C(=O)Nc3cc4cc(-c5cnn(C)c5)ccc4cn3)ccn2)CC1
inactive: viability, T/C (second compound 0.0316 µM, first compound 0.00949 µM) 100% | viability, T/C (second compound 0.0316 µM, first compound 0.03 µM) 127% | viability, T/C (second compound 0.0316 µM, first compound 0.0949 µM) 173% | viability, T/C (second compound 0.0316 µM, first compound 0.3 µM) 170% | viability, T/C (second compound 0.0316 µM, first compound 0.949 µM) 142% | viability, T/C (second compound 0.0316 µM, first compound 3 µM) 71.4% | viability, T/C (second compound 0.1 µM, first compound 0.00949 µM) 109% | viability, T/C (second compound 0.1 µM, first compound 0.03 µM) 125% | viability, T/C (second compound 0.1 µM, first compound 0.0949 µM) 155% | viability, T/C (second compound 0.1 µM, first compound 0.3 µM) 129% | viability, T/C (second compound 0.1 µM, first compound 0.949 µM) 79.5% | viability, T/C (second compound 0.1 µM, first compound 3 µM) 49.2% | viability, T/C (second compound 0.316 µM, first compound 0.00949 µM) 71.2% | viability, T/C (second compound 0.316 µM, first compound 0.03 µM) 65.3% | viability, T/C (second compound 0.316 µM, first compound 0.0949 µM) 28.8%
< 0.00949 µM: IC50 (second compound 1 µM) | IC50 (second compound 3.16 µM) | IC50 (second compound 10 µM)
0.0481 µM: IC50 (second compound 0.316 µM)
2.91 µM: IC50 (second compound 0.1 µM)
active: viability, T/C (second compound 0.316 µM, first compound 0.3 µM) 11.8% | viability, T/C (second compound 0.316 µM, first compound 0.949 µM) 4.77% | viability, T/C (second compound 0.316 µM, first compound 3 µM) 3.83% | viability, T/C (second compound 1 µM, first compound 0.00949 µM) 0.93% | viability, T/C (second compound 1 µM, first compound 0.03 µM) 1.37% | viability, T/C (second compound 1 µM, first compound 0.0949 µM) 3.35% | viability, T/C (second compound 1 µM, first compound 0.3 µM) 7.19% | viability, T/C (second compound 1 µM, first compound 0.949 µM) 6.52% | viability, T/C (second compound 1 µM, first compound 3 µM) 6.06% | viability, T/C (second compound 3.16 µM, first compound 0.00949 µM) 1.64% | viability, T/C (second compound 3.16 µM, first compound 0.03 µM) 3.12% | viability, T/C (second compound 3.16 µM, first compound 0.0949 µM) 5.78% | viability, T/C (second compound 3.16 µM, first compound 0.3 µM) 7.76% | viability, T/C (second compound 3.16 µM, first compound 0.949 µM) 10.5% | viability, T/C (second compound 3.16 µM, first compound 3 µM) 8.08% | viability, T/C (second compound 10 µM, first compound 0.00949 µM) 1.73% | viability, T/C (second compound 10 µM, first compound 0.03 µM) 4.63% | viability, T/C (second compound 10 µM, first compound 0.0949 µM) 4.7% | viability, T/C (second compound 10 µM, first compound 0.3 µM) 7.24% | viability, T/C (second compound 10 µM, first compound 0.949 µM) 9.55% | viability, T/C (second compound 10 µM, first compound 3 µM) 6.71%
> 3 µM: IC50 (second compound 0.0316 µM)
